Measured values as given in patent US7687473B2, “5-amino-4-imidazolecarboxamide riboside and its nucleobase as potentiators of antifolate transport and metabolism” (Health Research, Inc., priority 2005, dated 2010).

Target: T1, es (or ENT1) facilitated diffusion nucleoside transport system (Homo sapiens, UniProt Q99808)
T1 construct: this is the only nucleoside transporter present in CCRF-CEM cells; endogenous in cells; host or cells: CCRF-CEM (parental), in HBSS
T1 sequence (Q99808 1-456): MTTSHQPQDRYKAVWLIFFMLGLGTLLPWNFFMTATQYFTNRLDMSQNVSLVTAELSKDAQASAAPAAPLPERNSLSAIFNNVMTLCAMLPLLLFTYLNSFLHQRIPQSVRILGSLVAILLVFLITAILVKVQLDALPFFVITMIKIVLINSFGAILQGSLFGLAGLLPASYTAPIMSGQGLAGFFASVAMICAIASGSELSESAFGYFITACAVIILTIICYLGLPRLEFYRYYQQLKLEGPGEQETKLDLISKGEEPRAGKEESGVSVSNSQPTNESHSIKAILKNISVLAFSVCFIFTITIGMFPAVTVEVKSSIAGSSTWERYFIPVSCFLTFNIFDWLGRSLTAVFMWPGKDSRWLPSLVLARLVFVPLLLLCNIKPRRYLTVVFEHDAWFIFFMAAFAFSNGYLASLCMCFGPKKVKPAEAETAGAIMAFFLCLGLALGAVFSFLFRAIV
Assay: Inhibition of Z potentiation of [3H]MTX uptake by es nucleoside transporter inhibitors
Format: cell-based
Settings: [Z] 500 μM, HBSS

- Rel Corrected 30 min accumulation (relative to +Z, no inhibitor): 1
- Relative Corrected vi (relative to +Z, no inhibitor): 1
- Accumulation at 30 min (no inhibitor): 108.3 pmol
- Corrected 30 min accumulation (accum +Z minus accum −Z with same inhibitor) (no inhibitor): 91.3
- Corrected vi (rate +Z minus rate −Z with same inhibitor) (no inhibitor): 4.25
- vi (no inhibitor): 5.65 pmol/min
SMILES: NC(=O)c1ncn([C@@H]2O[C@H](CO)[C@@H](O)[C@H]2O)c1N [Z, 5-amino-4-imidazolecarboxamide riboside]
